Measurements as given in US10894792B2, “Pesticidally active heterocyclic derivatives with sulfur containing substituents” (SYNGENTA PARTICIPATIONS AG, priority 2017, dated 2021).

Tests used:
[1] = system: Diabrotica Balteata; test: Activity against Diabrotica balteata (corn root worm); format: in vivo; conditions: 96 h, application rate of 200 ppm, sprayed maize sprouts, L2 larvae, 4 days after infestation, read-out: effect in at least one of the two categories (mortality or growth inhibition)
Method: Maize sprouts placed onto an agar layer in 24-well microtiter plates were treated with aqueous test solutions prepared from 10′000 ppm DMSO stock solutions by spraying. After drying, the plates were infested with L2 larvae (6 to 10 per well). The samples were assessed for mortality and growth inhibition in comparison to untreated samples 4 days after infestation.

[2] = system: Frankliniella occidentalis; test: Activity against Frankliniella occidentalis (western flower thrips); format: in vivo; conditions: foliar, 168 h, application rate of 200 ppm, sprayed sunflower leaf discs, population of mixed ages, 7 days after infestation
Method: (§1) Sunflower leaf discs were placed on agar in 24-well microtiter plates and sprayed with aqueous test solutions prepared from 10′000 DMSO stock solutions. After drying the leaf discs were infested with a Frankliniella population of mixed ages. The samples were assessed for mortality 7 days after infestation.

[3] = system: Myzus persicae; test: Activity against Myzus persicae (green peach aphid), roots of pea seedlings in test solution; format: in vivo; conditions: 144 h, test rate of 24 ppm, roots of infested pea seedlings in test solution, 6 days
Method: Roots of pea seedlings infested with an aphid population of mixed ages were placed directly in the aqueous test solutions prepared from 10′000 DMSO stock solutions. The samples were assessed for mortality 6 days after placing seedlings in test solutions.

[4] = system: Bemisia tabaci; test: Activity against Bemisia tabaci (cotton white fly); format: in vivo; conditions: foliar, 144 h, application rate of 200 ppm, sprayed cotton leaf discs, adult white flies, 6 days after incubation
Method: Cotton leaf discs were placed on agar in 24-well microtiter plates and sprayed with aqueous test solutions prepared from 10′000 ppm DMSO stock solutions. After drying the leaf discs were infested with adult white flies. The samples were checked for mortality 6 days after incubation.

[5] = system: Myzus persicae; test: Activity against Myzus persicae (green peach aphid), sprayed sunflower leaf discs; format: in vivo; conditions: foliar, 144 h, application rate of 200 ppm, aphid population of mixed ages, 6 days after infestation
Method: Sunflower leaf discs were placed on agar in a 24-well microtiter plate and sprayed with aqueous test solutions prepared from 10′000 ppm DMSO stock solutions. After drying, the leaf discs were infested with an aphid population of mixed ages. The samples were assessed for mortality 6 days after infestation.

[6] = system: Thrips tabaci; test: Activity against Thrips tabaci (onion thrips); format: in vivo; conditions: foliar, 144 h, application rate of 200 ppm, sprayed sunflower leaf discs, thrips population of mixed ages, 6 days after infestation
Method: as §1, with “10′000 ppm” for “10′000”, “thrips” for “Frankliniella”, “6” for “7”

[7] = system: Plutella xylostella; test: Activity against Plutella xylostella (diamond back moth), artificial diet; format: in vivo; conditions: 120 h, application rate of 200 ppm, L2 larvae on artificial diet, 5 days after infestation, read-out: effect in at least one of the two categories (mortality or growth inhibition)
Method: 24-well microtiter plates with artificial diet were treated with aqueous test solutions prepared from 10′000 ppm DMSO stock solutions by pipetting. After drying, the plates were infested with L2 larvae (10 to 15 per well). The samples were assessed for mortality and growth inhibition in comparison to untreated samples 5 days after infestation.

[8] = system: Euschistus heros; test: Activity against Euschistus heros (neotropical brown stink bug); format: in vivo; conditions: 120 h, application rate of 200 ppm, sprayed soybean leaf, N-2 nymphs, 5 days after infestation, read-out: effect in at least one of the two categories (mortality or growth inhibition)
Method: Soybean leaf on agar in 24-well microtiter plates were sprayed with aqueous test solutions prepared from 10′000 ppm DMSO stock solutions. After drying the leaf were infested with N-2 nymphs. The samples were assessed for mortality and growth inhibition in comparison to untreated samples 5 days after infestation.

melting point | SMILES | percent effect (mortality or growth inhibition) at 200 ppm [1] | mortality at 200 ppm [2] | mortality at 24 ppm [3] | mortality at 200 ppm [4] | mortality at 200 ppm [5] | mortality at 200 ppm [6] | percent effect (mortality or growth inhibition) at 200 ppm [7] | percent effect (mortality or growth inhibition) at 200 ppm [8]
– | CCS(=O)(=O)c1cc(C(=O)N=S(C)(C)=O)cnc1-c1nc2cc(C(F)(F)F)ncc2n1C [Compound P1, N-[dimethyl(oxo)-λ^6-sulfanylidene]-5-ethylsulfonyl-6-[3-methyl-6-(trifluoromethyl)imidazo[4,5-c]pyridin-2-yl]pyridine-3-carboxamide] | ≥ 80% | ≥ 80% | ≥ 80% | ≥ 80% | ≥ 80% | ≥ 80% | ≥ 80% | ≥ 80%
185 to 189 °C | CCS(=O)(=O)c1cc(C(=O)N=S(=O)(CC)CC)cnc1-n1cc2cnc(C(F)(F)F)cc2n1 [Compound P26, N-[diethyl(oxo)-λ^6-sulfanylidene]-5-ethylsulfonyl-6-[6-(trifluoromethyl)pyrazolo[4,3-c]pyridin-2-yl]pyridine-3-carboxamide] | – | – | – | – | – | – | – | –
